Here are results for 1 molecule from US9475773B2, “NK3 receptor antagonist compound (NK3RA) for use in a method for the treatment of polycystic ovary syndrome (PCOS)” (ASTRAZENECA AB, priority 2013, dated 2016).

One data set relates to female rats. Description: Rat female fertility and embryofetal development study. The class given is in vivo. As for the experimental part: In female rats the No Adverse Effect Dose Level for fetal minor abnormalities and variants was 1000 mg/kg/day.
In a further data set the test system is female rabbits. Description: Rabbit maternal toxicity and fetal observations. It counts as in vivo. As for the experimental part:
In female rabbits, the no effect dose level for maternal toxicity was 25 mg/kg/day. The no adverse effect dose level for fetal observations was 50 mg/kg/day.

A further data set deals with NK1 (Homo sapiens, UniProt P25103). The data set can be described thus: Specificity over other tachykinin receptors (NK1). The class given is binding.
Sequence of NK1 (P25103 whole entry): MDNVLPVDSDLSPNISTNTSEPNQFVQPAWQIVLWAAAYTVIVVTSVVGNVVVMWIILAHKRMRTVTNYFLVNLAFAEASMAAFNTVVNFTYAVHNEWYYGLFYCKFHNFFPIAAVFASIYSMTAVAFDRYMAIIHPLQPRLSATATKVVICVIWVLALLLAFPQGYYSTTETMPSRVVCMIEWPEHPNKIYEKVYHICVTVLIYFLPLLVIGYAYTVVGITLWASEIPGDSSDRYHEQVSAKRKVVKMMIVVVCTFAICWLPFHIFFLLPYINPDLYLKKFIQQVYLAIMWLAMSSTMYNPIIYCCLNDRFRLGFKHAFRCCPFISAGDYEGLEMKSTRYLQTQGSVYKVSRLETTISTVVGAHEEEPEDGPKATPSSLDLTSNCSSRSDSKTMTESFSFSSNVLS
For another data set, the target named is T1, NK2 (Homo sapiens, UniProt P21452).
T1 sequence (P21452 1-398): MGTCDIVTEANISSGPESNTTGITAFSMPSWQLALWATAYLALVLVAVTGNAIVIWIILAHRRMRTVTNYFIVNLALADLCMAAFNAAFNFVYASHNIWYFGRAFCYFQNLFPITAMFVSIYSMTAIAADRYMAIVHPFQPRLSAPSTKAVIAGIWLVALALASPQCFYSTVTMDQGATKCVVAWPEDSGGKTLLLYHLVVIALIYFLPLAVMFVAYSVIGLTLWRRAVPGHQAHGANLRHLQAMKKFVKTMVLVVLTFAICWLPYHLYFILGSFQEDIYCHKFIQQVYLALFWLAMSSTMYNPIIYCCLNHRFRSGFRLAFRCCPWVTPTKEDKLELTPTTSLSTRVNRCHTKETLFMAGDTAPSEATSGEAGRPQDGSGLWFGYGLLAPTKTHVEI
Description: Specificity over other tachykinin receptors (NK2). It counts as binding.

In another data set the test system is rats. The data set can be described thus: Respiratory parameters in rats. The class given is in vivo, rat. The following applies: up to 2000 mg/kg (4400 μmol/kg).
The next data set concerns guinea pig heart. The data set can be described thus: Monophasic action potential of the guinea pig heart. It counts as in vivo. The settings on record: IV doses up to 46 mg/kg (100 μmol/kg).
Data set [1] in a line: Pharmacokinetics and metabolism in dogs. The class given is in vivo. The following applies: dog. As for the experimental part:
At low doses, the estimated Clp of The NK3RA was moderate in rat (8.3 ml/min/kg) and low in the dog (1.2 ml/min/kg). Bioavailability (F) was ˜100% in both species indicating extensive absorption in these species. The volume of distribution (Vz) was moderate (1.6 L·kg in rat and 0.81 L/kg in dog) and consistent with the physico-chemical properties of the compound. […] The NK3RA exposure decreased after multiple dosing in rats, indicating either changes in absorption or induction of The NK3RA metabolism, or both, after multiple dosing. […] T1/2 values ranged from 5.6 hours to 14.3 hours at the end of dosing for dogs dosed at 1000 mg/kg/day (2180 μmol/kg/day). There were no consistent sex differences observed in the exposure to NK3RA in these 2 species.
Following oral administration of The NK3RA in the rat, a pharmacologically active ketone metabolite appeared rapidly in plasma but slowly reached maximum concentration levels in all animals. […] T1/2 values ranged from 8.51 hours to 13.8 hours on Day 27 and Day 28 for dogs dosed with 1000 mg/kg/day (2180 μmol/kg/day) of the NK3RA. There were no consistent sex differences observed in the exposure to the metabolite in these 2 species.

The target of another data set is T2, NK3 receptor (Homo sapiens, UniProt P29371).
T2 sequence (P29371 1-465): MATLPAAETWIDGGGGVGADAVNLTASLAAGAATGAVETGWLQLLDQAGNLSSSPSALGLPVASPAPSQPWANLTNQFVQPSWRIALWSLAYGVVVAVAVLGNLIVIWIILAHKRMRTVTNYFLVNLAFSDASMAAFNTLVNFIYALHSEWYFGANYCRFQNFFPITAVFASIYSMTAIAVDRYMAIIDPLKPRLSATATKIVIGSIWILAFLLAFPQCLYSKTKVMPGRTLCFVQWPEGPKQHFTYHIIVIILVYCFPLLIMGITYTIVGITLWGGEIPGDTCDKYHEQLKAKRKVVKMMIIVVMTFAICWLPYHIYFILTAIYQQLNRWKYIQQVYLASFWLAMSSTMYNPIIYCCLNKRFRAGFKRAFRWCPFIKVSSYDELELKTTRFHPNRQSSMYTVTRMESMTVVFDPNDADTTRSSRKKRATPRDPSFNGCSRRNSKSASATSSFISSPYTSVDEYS
The data set can be described thus: In vitro target engagement. It counts as binding. The settings on record: n=12.

In the next data set the test system is serum testosterone. The data set can be described thus: Phase II PoP schizophrenia trial, serum testosterone. It counts as in vivo, human. The following applies: schizophrenia patients, 40 mg QD.
The subject of a further data set is mice. The data set can be described thus: Neurobehavioral test battery in mice. It counts as in vivo. The following applies: oral doses 100, 300 and 600 mg/kg. The method, then: Safety pharmacology studies were carried out on NK3RA and included tests to investigate possible effects on the central nervous system (CNS), cardiovascular system, and respiratory system.

The structures appear in SMILES notation. Where two headings read alike, the source gives them in different places. Bounds are passed on as bounds.

For `CC[C@H](NC(=O)c1c(NS(C)(=O)=O)c(-c2ccccc2)nc2ccccc12)c1ccccc1` [NK3RA, 3-(methanesulfonamido)-2-phenyl-N-[(1S)-1-phenylpropyl]quinoline-4-carboxamide], the “No Adverse Effect Dose Level for fetal minor abnormalities and variants” value in the data set with female rats (female rats) is on record as 1000 mg/kg/day. Moreover, the “estrus cycles, mating performance and fertility” value in the data set on female rats (rat, in vivo) was “Disturbed estrus cycles were seen with no adverse effects on mating performance or fertility”. Further, in the data set with female rabbits, the “no adverse effect dose level for fetal observations” value amounted to 50 mg/kg/day and the “no effect dose level for maternal toxicity” value is given as 25 mg/kg/day. The “specificity for NK3 over NK1” value on NK1 is listed as “greater than 1200 fold”. Moreover, at NK2, the “specificity for NK3 over NK2” value is above 800 fold. Further, the respiratory parameters entry in the data set with rats is “did not affect any respiratory parameters”. In the data set with guinea pig heart, the “effect on monophasic action potential” value was “without effect”. Moreover, the “accumulation after 28-day repeat dosing regimen” value in data set [1] was “no accumulation or reduction”. In addition, in data set [1] (oral administration), the rate of absorption result is “more rapidly absorbed”. In data set [1] (plasma, oral, dogs dosed at 1000 mg/kg/day (2180 μmol/kg/day), read-out: T1/2 at the end of dosing), the half-life lay in the range of 5.6 to 14.3 h. In addition, in [1] (plasma, oral, read-out: Bioavailability (F)), the bioavailability (commonly the share of a dose that reaches the circulation, judged against a reference dose that is usually intravenous) was around 100%. Also, the half-life in [1] (plasma, read-out: elimination half-life (T½) (converted)) was 9.5 h. For the same molecule, the Vd in [1] (plasma, read-out: volume of distribution (Vz)) was determined as 0.81 L/kg. In data set [1] (plasma, low doses, estimated, read-out: Clp), the clearance was 1.2 mL/min/kg. Moreover, the 50% inhibitory concentration (IC50) (in general, the concentration needed to halve the response being measured) against NK3 receptor amounted to 2.24 ± 0.57 nM. Also, in the data set on serum testosterone, the serum testosterone result is “reduction in serum testosterone”. Besides, in the data set with mice, the neurobehavioral effects entry was “transient deficits in gait and spontaneous motor activity”; the “time to full recovery” value is at most 24 h.
